Results: publication PMC8784640, “New insights into the molecular mechanisms of glutaminase C inhibitors in cancer cells using serial room temperature crystallography” (The Journal of Biological Chemistry, 2021)
Changes are numbered by the printed parent chain. pIC50, pKd: −log10 of the molar value.

Assays:
[1] = tested on: mouse GAC (K325A); design: method as in PMID 23935106; conditions: concentrations as high as 10 μM; equivalent to human GAC (K320A); cited from earlier work
[2] = design: method as in PMID 26988803; conditions: compared with BPTES; cited from earlier work
[3] = target: T1, GAC (K320A and Y466W) (Mus musculus, UniProt D3Z7P3, K325A/Y471W); assay: Tryptophan fluorescence quenching binding assay, GAC (K320A and Y466W); conditions: GAC mutant K320A, Trp 466 fluorescence, read-out: Kd (apparent)
T1 construct: made in house
T1 sequence (D3Z7P3 72-603 isoform D3Z7P3-2 K325A/Y471W): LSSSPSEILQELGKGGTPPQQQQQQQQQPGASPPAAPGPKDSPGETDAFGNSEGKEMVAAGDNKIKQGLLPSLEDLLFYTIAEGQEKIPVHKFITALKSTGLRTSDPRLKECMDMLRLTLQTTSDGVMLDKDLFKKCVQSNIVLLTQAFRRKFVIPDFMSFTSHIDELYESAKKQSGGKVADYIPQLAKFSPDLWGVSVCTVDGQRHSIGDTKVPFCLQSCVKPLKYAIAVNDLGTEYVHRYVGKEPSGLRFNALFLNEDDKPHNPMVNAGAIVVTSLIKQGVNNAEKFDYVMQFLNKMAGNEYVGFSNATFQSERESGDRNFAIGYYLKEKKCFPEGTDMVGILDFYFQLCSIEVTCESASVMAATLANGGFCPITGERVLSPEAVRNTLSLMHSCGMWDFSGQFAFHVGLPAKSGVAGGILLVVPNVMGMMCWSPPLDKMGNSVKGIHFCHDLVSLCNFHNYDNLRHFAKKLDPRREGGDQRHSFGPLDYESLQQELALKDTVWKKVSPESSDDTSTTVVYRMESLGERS

[4] = target: T2, GAC (R317A and Y466W) (Mus musculus, UniProt D3Z7P3, R322A/Y471W); assay: Tryptophan fluorescence quenching binding assay, GAC (R317A and Y466W); conditions: GAC mutant R317A, Trp 466 fluorescence, read-out: Kd (apparent)
T2 sequence (D3Z7P3 128-555 R322A/Y471W): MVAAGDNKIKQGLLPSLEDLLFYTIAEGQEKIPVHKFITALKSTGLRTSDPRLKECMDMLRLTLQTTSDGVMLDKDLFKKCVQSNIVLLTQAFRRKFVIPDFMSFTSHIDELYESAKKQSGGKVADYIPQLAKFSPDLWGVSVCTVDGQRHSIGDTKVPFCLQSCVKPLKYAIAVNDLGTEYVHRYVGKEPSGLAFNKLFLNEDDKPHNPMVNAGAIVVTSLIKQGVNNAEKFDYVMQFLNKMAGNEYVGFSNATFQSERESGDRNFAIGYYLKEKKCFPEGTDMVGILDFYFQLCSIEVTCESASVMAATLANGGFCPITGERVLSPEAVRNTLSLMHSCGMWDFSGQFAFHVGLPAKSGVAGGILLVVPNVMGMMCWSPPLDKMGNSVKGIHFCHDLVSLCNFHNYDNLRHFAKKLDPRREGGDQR

[5] = target: T3, GAC (F318A and Y466W) (Mus musculus, UniProt D3Z7P3, F323A/Y471W); assay: Tryptophan fluorescence quenching binding assay, GAC (F318A and Y466W); conditions: GAC mutant F318A, Trp 466 fluorescence, read-out: Kd (apparent)
T3 sequence (D3Z7P3 128-555 F323A/Y471W): T2 sequence (D3Z7P3 128-555 R322A/Y471W) with A195R, F196A

[6] = tested on: recombinant GAC; design: method as in PMID 26988803; conditions: cited from earlier work; for pIC50: recombinant GAC (50 nM), total glutamine hydrolysis
[7] = target: T4, GAC (Y466W) (Mus musculus, UniProt D3Z7P3, Y471W); assay: Tryptophan fluorescence quenching binding assay, GAC (Y466W); conditions: for pKd: Kd (apparent), Trp 466 fluorescence quenching
T4 sequence (D3Z7P3 72-603 isoform D3Z7P3-2 Y471W limits assumed): T1 sequence (D3Z7P3 72-603 isoform D3Z7P3-2 K325A/Y471W) with A254K
Procedure: (§1) We first examined their ability to alter the conformation of the activation loop, that is, the site where the compounds bind to GAC ([15], [28]). […] We then treated the GAC (Y466W) mutant with each molecule to monitor conformational changes within the substrate-binding site ([15], [28]).
(§2) Mouse GAC (F327W) and GAC (Y471W), which correspond to human GAC (F322W) and GAC (Y466W), were prepared as previously described ([14], [28]), except that the protein was eluted in a higher salt buffer during FPLC purification (500 mM NaCl, 20 mM Tris–HCl, pH 8.5) to enhance protein stability. Assays were then conducted as previously described ([14], [28]). Briefly, 100 nM GAC (F327W) or GAC (Y471W) was solvated in 1 ml of 50 mM Tris-acetate, pH 8.5, with 0.1 mM EDTA and the indicated amount of inhibitor.

[8] = target: T5, GAC (F322W) (Mus musculus, UniProt D3Z7P3, F327W); assay: Tryptophan fluorescence quenching binding assay, GAC (F322W)
T5 sequence (D3Z7P3 72-603 isoform D3Z7P3-2 F327W limits assumed): T1 sequence (D3Z7P3 72-603 isoform D3Z7P3-2 K325A/Y471W) with A254K, F256W, W400Y
Procedure: as §1, §2

pKd ([7]; 100 nM GAC (Y466W)) | pKd [8] | quenching of Trp 322 fluorescence (in words) ([8]; GAC (F322W)) | SMILES | pIC50 [6] | quenching of Trp 466 fluorescence / binding (in words) ([7]; GAC (Y466W)) | further results
– | – | – | O=C(Cc1ccccc1)Nc1nnc(CCSCCc2nnc(NC(=O)Cc3ccccc3)s2)s1 [BPTES, bis-2-(5-phenylacetamido-1,3,4-thiadiazol-2-yl)ethyl sulfide, reference compound] | – | – | inhibition of mouse GAC (K325A) [1]: resistant to inhibition
– | – | – | O=C(Cc1cccc(OC(F)(F)F)c1)Nc1ccc(CCCCc2nnc(NC(=O)Cc3ccccn3)s2)nn1 [CB-839, reference compound] | – | – | calculated logP relative to BPTES [2]: higher calculated logP
7.12 | – | – | O=C(Cc1ccccc1)Nc1nnc(NC2CCN(c3nnc(NC(=O)Cc4ccccc4)s3)CC2)s1 [UPGL00004] | 7.54 | – | pKd [3]: < 6.00; pKd [4]: 7.42; pKd [5]: 7.62
– | – | – | O=C(Cc1ccccc1)Nc1nnc(O[C@H]2CCN(c3nnc(NC(=O)Cc4ccccc4)s3)C2)s1 [UPGL00015] | 7.40 | – | –
7.54 | 7.26 | quenching of Trp 322 fluorescence | O=C(Cc1ccccc1)Nc1nnc(OC2CCN(c3nnc(NC(=O)Cc4ccccc4)s3)CC2)s1 [UPGL00019] | 7.52 | effective at causing a quenching of Trp 466 fluorescence | pKd [3]: < 6.00; pKd [4]: 7.51; pKd [5]: 7.27
– | – | – | CC(=O)Nc1nnc(OC2CCN(c3nnc(NC(C)=O)s3)CC2)s1 [UPGL00020] | 5.98 | significantly reduced binding | –
7.57 | 7.46 | quenching of Trp 322 fluorescence | Nc1nnc(N2CCC(Oc3nnc(NC(=O)Cc4ccccc4)s3)CC2)s1 [UPGL00031] | 6.69 | effective at causing a quenching of Trp 466 fluorescence | –
– | – | – | O=C(Cc1ccccc1)Nc1ccc(OC2CCN(c3ccc(NC(=O)Cc4ccccc4)nn3)CC2)nn1 [UPGL00045] | 7.01 | – | –

SMILES | pKd ([7]; 100 nM GAC (Y466W)) | pKd [8] | quenching of Trp 322 fluorescence (in words) ([8]; GAC (F322W)) | pIC50 [6] | quenching of Trp 466 fluorescence / binding (in words) ([7]; GAC (Y466W)) | further results
Nc1nnc(OC2CCN(c3nnc(N)s3)CC2)s1 [UPGL00018] | < 6.00 | < 6.00 | largely ineffective at micromolar concentrations | < 5.00 | markedly less effective | inhibition ([6]; at 10 μM, catalytic data of this paper come from ref 20): ~20%; lowest concentration with statistically significant quenching ([8]; GAC (F322W)): 240 nM; competition with UPGL00019 for GAC binding ([7]; 100 nM GAC (Y466W), 1 μM UPGL00018 and 1 μM UPGL00019, simultaneous or sequential): unable to compete away UPGL00019; lowest concentration with statistically significant effect on tryptophan fluorescence ([7]; GAC (Y466W), highest tested concentration, effect minimal): 980 nM
